Assay results from the NIST ThermoML archive (doi:10.1016/j.jct.2014.06.012).

Conditions: for molar entropy: 101.33 kPa; for Triple point temperature: Adiabatic calorimetry

O=P([O-])([O-])[O-].[Cs+].[Mn+2] [cesium manganese(II) phosphate]
Conditions | molar entropy [J/K/mol]
5 K, Crystal 3, Vacuum adiabatic calorimetry | 0.572
6 K, Crystal 3, Vacuum adiabatic calorimetry | 0.9894
6.9 K, Crystal 2, Vacuum adiabatic calorimetry | 3.334
6.9 K, Crystal 3, Vacuum adiabatic calorimetry | 1.463
7 K, Crystal 2, Vacuum adiabatic calorimetry | 3.434
8 K, Crystal 2, Vacuum adiabatic calorimetry | 4.099
9 K, Crystal 2, Vacuum adiabatic calorimetry | 4.639
10 K, Crystal 2, Vacuum adiabatic calorimetry | 5.163
15 K, Crystal 2, Vacuum adiabatic calorimetry | 8.007
20 K, Crystal 2, Vacuum adiabatic calorimetry | 11.12
25 K, Crystal 2, Vacuum adiabatic calorimetry | 14.62
30 K, Crystal 2, Vacuum adiabatic calorimetry | 18.46
35 K, Crystal 2, Vacuum adiabatic calorimetry | 22.54
40 K, Crystal 2, Vacuum adiabatic calorimetry | 26.78
45 K, Crystal 2, Vacuum adiabatic calorimetry | 31.05
50 K, Crystal 2, Vacuum adiabatic calorimetry | 35.27
60 K, Crystal 2, Vacuum adiabatic calorimetry | 43.62
70 K, Crystal 2, Vacuum adiabatic calorimetry | 51.79
80 K, Crystal 2, Vacuum adiabatic calorimetry | 59.71
90 K, Crystal 2, Vacuum adiabatic calorimetry | 67.35
100 K, Crystal 2, Vacuum adiabatic calorimetry | 74.73
110 K, Crystal 2, Vacuum adiabatic calorimetry | 81.91
120 K, Crystal 2, Vacuum adiabatic calorimetry | 88.96
127 K, Crystal 1, Vacuum adiabatic calorimetry | 95.03
127 K, Crystal 2, Vacuum adiabatic calorimetry | 93.79
130 K, Crystal 1, Vacuum adiabatic calorimetry | 97.11
140 K, Crystal 1, Vacuum adiabatic calorimetry | 103.68
150 K, Crystal 1, Vacuum adiabatic calorimetry | 110.17
160 K, Crystal 1, Vacuum adiabatic calorimetry | 116.4
170 K, Crystal 1, Vacuum adiabatic calorimetry | 122.56
180 K, Crystal 1, Vacuum adiabatic calorimetry | 128.54
190 K, Crystal 1, Vacuum adiabatic calorimetry | 134.36
200 K, Crystal 1, Vacuum adiabatic calorimetry | 140.02
210 K, Crystal 1, Vacuum adiabatic calorimetry | 145.67
220 K, Crystal 1, Vacuum adiabatic calorimetry | 151.07
230 K, Crystal 1, Vacuum adiabatic calorimetry | 156.4
240 K, Crystal 1, Vacuum adiabatic calorimetry | 161.63
250 K, Crystal 1, Vacuum adiabatic calorimetry | 166.79
260 K, Crystal 1, Vacuum adiabatic calorimetry | 171.86
270 K, Crystal 1, Vacuum adiabatic calorimetry | 176.77
280 K, Crystal 1, Vacuum adiabatic calorimetry | 181.59
290 K, Crystal 1, Vacuum adiabatic calorimetry | 186.41
298.15 K, Crystal 1, Vacuum adiabatic calorimetry | 190.24
300 K, Crystal 1, Vacuum adiabatic calorimetry | 191.15
310 K, Crystal 1, Vacuum adiabatic calorimetry | 195.81
320 K, Crystal 1, Vacuum adiabatic calorimetry | 200.46
330 K, Crystal 1, Vacuum adiabatic calorimetry | 205.03
340 K, Crystal 1, Vacuum adiabatic calorimetry | 209.61
350 K, Crystal 1, Small sample (50 mg) DSC | 214.51
360 K, Crystal 1, Small sample (50 mg) DSC | 218.67
370 K, Crystal 1, Small sample (50 mg) DSC | 222.83
380 K, Crystal 1, Small sample (50 mg) DSC | 226.99
390 K, Crystal 1, Small sample (50 mg) DSC | 231.14
400 K, Crystal 1, Small sample (50 mg) DSC | 235.3
410 K, Crystal 1, Small sample (50 mg) DSC | 239.46
420 K, Crystal 1, Small sample (50 mg) DSC | 243.61
430 K, Crystal 1, Small sample (50 mg) DSC | 247.77
440 K, Crystal 1, Small sample (50 mg) DSC | 251.93
450 K, Crystal 1, Small sample (50 mg) DSC | 255.25
460 K, Crystal 1, Small sample (50 mg) DSC | 259.41
470 K, Crystal 1, Small sample (50 mg) DSC | 262.74
480 K, Crystal 1, Small sample (50 mg) DSC | 266.06
490 K, Crystal 1, Small sample (50 mg) DSC | 270.22
500 K, Crystal 1, Small sample (50 mg) DSC | 273.55
510 K, Crystal 1, Small sample (50 mg) DSC | 276.87
520 K, Crystal 1, Small sample (50 mg) DSC | 280.2
530 K, Crystal 1, Small sample (50 mg) DSC | 283.52
540 K, Crystal 1, Small sample (50 mg) DSC | 286.85
550 K, Crystal 1, Small sample (50 mg) DSC | 290.18
560 K, Crystal 1, Small sample (50 mg) DSC | 293.5
570 K, Crystal 1, Small sample (50 mg) DSC | 296.83
580 K, Crystal 1, Small sample (50 mg) DSC | 300.15
590 K, Crystal 1, Small sample (50 mg) DSC | 302.65
600 K, Crystal 1, Small sample (50 mg) DSC | 305.97
610 K, Crystal 1, Small sample (50 mg) DSC | 309.3
620 K, Crystal 1, Small sample (50 mg) DSC | 311.79
630 K, Crystal 1, Small sample (50 mg) DSC | 315.12
640 K, Crystal 1, Small sample (50 mg) DSC | 317.61
650 K, Crystal 1, Small sample (50 mg) DSC | 320.94

Conditions | Triple point temperature [K]
Crystal 2 | 127
Crystal 3 | 6.9
